Read-outs that look alike come from different tables or passages of the source.
Key:
[1] = test system: E. coli EV36 (K1:K-12 hybrid strain); experiment: T7 phage counter assay; assay type: cell-based, Escherichia coli; conditions: average of at least 3 replicates ± SEM
Protocol: This secondary assay was performed as previously described and was used to distinguish compounds with phage inhibitory effects from true polysaccharide capsule inhibitors. […] Thus, the presence of a capsule inhibits T7-mediated lysis. In this assay, an increase in phage-induced lysis correlates to a decrease in capsule formation. […]. […] The positive control molecule C7 (100 µM final well concentration) was used in this screen.

Adenosine A1 = biological target: T1, Adenosine A1 (Homo sapiens, UniProt P30542); experiment: Radioligand binding 200510; conditions: 10 µM
T1 construct: host or cells: CHO cells

Adenosine A2A = biological target: T2, Adenosine A2A (Homo sapiens, UniProt P29274); experiment: Radioligand binding 200610; conditions: 10 µM
T2 construct: host or cells: HEK-293 cells

Adrenergic α1D = biological target: T3, Adrenergic α1D (Homo sapiens, UniProt P25100); assay type: binding; conditions: 10 µM
T3 construct: host or cells: HEK-293 cells

Adrenergic α2A = biological target: T4, Adrenergic α2A (Homo sapiens, UniProt P08913); experiment: Radioligand binding 203620; conditions: 10 µM
T4 construct: host or cells: insect Sf9 cells
Protocol: Vehicle: 1% DMSO Non-Specific Ligand: 10.0 µM Phentolamine
Incubation Buffer: 50 mM Tris-HCl, pH 7.4, 0. 5 mM Quantitation Method: Radioligand Binding
Bmax: 0.18 pmole/mg Protein *
Incubation Time/Temp: 60 minutes @ 25°C Specific Binding: 80% *
Bmax: 0.17 pmole/mg Protein *
Source: Human recombinant insect Sf9 cells Ligand: 1.0 nM [3H]
Vehicle: 1% DMSO Non-Specific Ligand: 10.0 µM WB-4101
Incubation Time/Temp: 60 minutes @ 25°C Specific Binding: 95% *
Incubation Buffer: 50 mM Tris-HCl, pH 7.4, 12.5 mM Quantitation Method: Radioligand Binding
Bmax: 4.60 pmole/mg Protein *
Source: Human recombinant CHO-K1 cells Ligand: 0.030 nM [125I] Cyanopindolol
Incubation Time/Temp: 2 hours @ 25°C Specific Binding: 95% *
Incubation Buffer: 50 mM Tris-HCl, pH 7.4, 1.4 mM Quantitation Method: Radioligand Binding
Ascorbic Acid, 0.001% BSA, 5 mM
EDTA, 1.5 mM CaCl2, 120 mM NaCl
Bmax: 0.072 pmole/mg Protein *

Adrenergic β1 = biological target: T5, Adrenergic β1 (Homo sapiens, UniProt P08588); assay type: binding; conditions: 10 µM
T5 construct: host or cells: CHO-K1 cells

Calcium Channel N-Type = Calcium Channel N-Type (Rattus norvegicus, UniProt Q02294); experiment: biochemical; assay type: binding; conditions: 10 µM
Cannabinoid CB1 = Cannabinoid CB1 (Homo sapiens, UniProt P21554); assay type: binding; conditions: 10 µM
Dopamine D1 = biological target: T6, Dopamine D1 (Homo sapiens, UniProt P21728); assay type: binding; conditions: 10 µM
T6 construct: host or cells: CHO cells

Dopamine D3 = biological target: T7, Dopamine D3 (Homo sapiens, UniProt P35462); assay type: binding; conditions: 10 µM
T7 construct: host or cells: CHO cells

Dopamine D4.2 = biological target: T8, Dopamine D4.2 (Homo sapiens, UniProt P21917, DEL265-296); assay type: binding; conditions: 10 µM
T8 construct: host or cells: CHO-K1 cells

Endothelin ETA = biological target: T9, Endothelin ETA (Homo sapiens, UniProt P25101); assay type: binding; conditions: 10 µM
T9 construct: host or cells: CHO-K1 cells

[2] = biological target: T10, Epidermal Growth Factor (EGF) (Homo sapiens, UniProt P00533); experiment: Radioligand binding 225510; conditions: 10 µM
T10 construct: Human A431 cells; host or cells: A431 cells

GABAB1A = biological target: T11, GABAB1A (Homo sapiens, UniProt Q9UBS5); experiment: Radioligand binding 228610; conditions: 10 µM
T11 construct: host or cells: CHO cells

Interleukin IL-1 = biological target: T12, Interleukin IL-1 (Mus musculus, UniProt P13504); experiment: Radioligand binding 243520; conditions: 10 µM
T12 construct: Mouse 3T3-SWISS cells; host or cells: Swiss 3T3 mouse fibroblasts

[3] = biological target: T13, Leukotriene, Cysteinyl CysLT1 (Homo sapiens, UniProt Q9Y271); experiment: Radioligand binding 250460; conditions: 10 µM
T13 construct: host or cells: CHO-K1 cells

Muscarinic M1 = biological target: T14, Muscarinic M1 (Homo sapiens, UniProt P11229); experiment: Radioligand binding 252610; conditions: 10 µM
T14 construct: host or cells: CHO-K1 cells

Phorbol Ester = experiment: Radioligand binding 264500; design: species or system mouse; conditions: 10 µM
[4] = biological target: T15, Platelet Activating Factor (PAF) (Homo sapiens, UniProt P25105); assay type: binding; conditions: 10 µM
T15 construct: Human platelets; host or cells: human platelets

Thyroid Hormone = Thyroid Hormone (Rattus norvegicus, UniProt P18113); assay type: binding; conditions: 10 µM
Transporter, GABA = biological target: T16, Transporter, GABA (Rattus norvegicus, UniProt P23978); experiment: Radioligand binding 226400; conditions: 10 µM
T16 construct: Wistar Rat cerebral cortex; tissue Eurofins Panlabs 226400; host or cells: Wistar rat cerebral cortex

[5] = biological target: T17, Transporter, Norepinephrine (NET) (Homo sapiens, UniProt P23975); assay type: binding; conditions: 10 µM
T17 construct: host or cells: MDCK

[6] = Mouse
[7] = biological target: Serotonin (5-Hydroxytryptamine) 5-HT2B (Homo sapiens, UniProt P41595); experiment: Radioligand binding 271700; design: host or cells: CHO-K1; conditions: 10 µM
[8] = biological target: Transporter, Dopamine (DAT) (Homo sapiens, UniProt Q01959); assay type: binding; design: host or cells: CHO-K1; conditions: 10 µM
Dopamine D2S = Dopamine D2S (Homo sapiens, UniProt P14416); assay type: binding; design: host or cells: CHO cells; conditions: 10 µM
Bradykinin B2 = Bradykinin B2 (Homo sapiens, UniProt P30411); assay type: binding; design: host or cells: Chem-1 cells; conditions: 10 µM
Muscarinic M3 = Muscarinic M3 (Homo sapiens, UniProt P20309); assay type: binding; design: host or cells: CHO-K1 cells; conditions: 10 µM
[9] = pre-treatment of bacteria without pretreatment of the mice

T4 sequence (P08913 whole entry): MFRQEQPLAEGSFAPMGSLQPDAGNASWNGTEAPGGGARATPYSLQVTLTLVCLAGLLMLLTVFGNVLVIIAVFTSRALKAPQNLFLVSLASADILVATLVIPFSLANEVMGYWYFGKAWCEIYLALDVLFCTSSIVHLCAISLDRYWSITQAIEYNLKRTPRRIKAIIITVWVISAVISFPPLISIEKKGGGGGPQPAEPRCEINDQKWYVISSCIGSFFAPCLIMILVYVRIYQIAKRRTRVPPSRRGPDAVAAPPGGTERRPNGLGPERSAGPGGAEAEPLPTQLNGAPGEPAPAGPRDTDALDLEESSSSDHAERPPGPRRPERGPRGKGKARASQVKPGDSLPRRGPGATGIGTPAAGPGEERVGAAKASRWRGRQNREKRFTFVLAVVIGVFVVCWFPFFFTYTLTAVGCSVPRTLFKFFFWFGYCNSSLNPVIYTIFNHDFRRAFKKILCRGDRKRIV
T3 sequence (P25100 whole entry): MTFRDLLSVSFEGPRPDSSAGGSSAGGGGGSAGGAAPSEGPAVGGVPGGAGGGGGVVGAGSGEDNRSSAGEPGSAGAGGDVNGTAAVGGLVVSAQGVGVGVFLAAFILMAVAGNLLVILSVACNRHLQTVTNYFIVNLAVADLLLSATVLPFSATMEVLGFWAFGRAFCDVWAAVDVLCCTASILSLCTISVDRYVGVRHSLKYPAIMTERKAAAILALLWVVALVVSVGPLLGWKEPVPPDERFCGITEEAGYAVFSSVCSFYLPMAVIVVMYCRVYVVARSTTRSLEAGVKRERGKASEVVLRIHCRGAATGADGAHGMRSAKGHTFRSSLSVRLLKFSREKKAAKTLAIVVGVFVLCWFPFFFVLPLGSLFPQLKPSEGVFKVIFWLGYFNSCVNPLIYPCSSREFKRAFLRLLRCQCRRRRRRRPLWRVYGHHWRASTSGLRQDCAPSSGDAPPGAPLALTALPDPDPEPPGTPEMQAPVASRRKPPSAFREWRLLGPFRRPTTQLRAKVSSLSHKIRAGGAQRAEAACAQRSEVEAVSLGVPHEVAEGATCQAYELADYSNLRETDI
Muscarinic M3, sequence (P20309 whole entry): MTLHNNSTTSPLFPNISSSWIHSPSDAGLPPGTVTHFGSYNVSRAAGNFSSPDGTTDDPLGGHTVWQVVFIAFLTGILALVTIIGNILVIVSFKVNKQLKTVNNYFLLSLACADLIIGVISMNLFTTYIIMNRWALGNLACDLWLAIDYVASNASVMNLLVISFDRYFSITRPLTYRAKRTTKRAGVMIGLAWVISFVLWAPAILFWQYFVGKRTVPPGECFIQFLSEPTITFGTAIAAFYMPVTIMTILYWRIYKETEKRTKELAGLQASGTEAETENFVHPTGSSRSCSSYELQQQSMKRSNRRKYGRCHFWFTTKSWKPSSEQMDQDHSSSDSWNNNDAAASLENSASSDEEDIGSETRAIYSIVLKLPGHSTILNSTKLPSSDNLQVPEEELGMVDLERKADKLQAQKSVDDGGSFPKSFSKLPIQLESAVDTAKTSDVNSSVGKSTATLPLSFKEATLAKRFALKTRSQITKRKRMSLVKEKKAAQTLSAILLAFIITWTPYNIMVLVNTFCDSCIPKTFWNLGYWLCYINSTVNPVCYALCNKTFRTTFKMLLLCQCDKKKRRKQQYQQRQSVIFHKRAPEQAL
T10 sequence (P00533 25-1210): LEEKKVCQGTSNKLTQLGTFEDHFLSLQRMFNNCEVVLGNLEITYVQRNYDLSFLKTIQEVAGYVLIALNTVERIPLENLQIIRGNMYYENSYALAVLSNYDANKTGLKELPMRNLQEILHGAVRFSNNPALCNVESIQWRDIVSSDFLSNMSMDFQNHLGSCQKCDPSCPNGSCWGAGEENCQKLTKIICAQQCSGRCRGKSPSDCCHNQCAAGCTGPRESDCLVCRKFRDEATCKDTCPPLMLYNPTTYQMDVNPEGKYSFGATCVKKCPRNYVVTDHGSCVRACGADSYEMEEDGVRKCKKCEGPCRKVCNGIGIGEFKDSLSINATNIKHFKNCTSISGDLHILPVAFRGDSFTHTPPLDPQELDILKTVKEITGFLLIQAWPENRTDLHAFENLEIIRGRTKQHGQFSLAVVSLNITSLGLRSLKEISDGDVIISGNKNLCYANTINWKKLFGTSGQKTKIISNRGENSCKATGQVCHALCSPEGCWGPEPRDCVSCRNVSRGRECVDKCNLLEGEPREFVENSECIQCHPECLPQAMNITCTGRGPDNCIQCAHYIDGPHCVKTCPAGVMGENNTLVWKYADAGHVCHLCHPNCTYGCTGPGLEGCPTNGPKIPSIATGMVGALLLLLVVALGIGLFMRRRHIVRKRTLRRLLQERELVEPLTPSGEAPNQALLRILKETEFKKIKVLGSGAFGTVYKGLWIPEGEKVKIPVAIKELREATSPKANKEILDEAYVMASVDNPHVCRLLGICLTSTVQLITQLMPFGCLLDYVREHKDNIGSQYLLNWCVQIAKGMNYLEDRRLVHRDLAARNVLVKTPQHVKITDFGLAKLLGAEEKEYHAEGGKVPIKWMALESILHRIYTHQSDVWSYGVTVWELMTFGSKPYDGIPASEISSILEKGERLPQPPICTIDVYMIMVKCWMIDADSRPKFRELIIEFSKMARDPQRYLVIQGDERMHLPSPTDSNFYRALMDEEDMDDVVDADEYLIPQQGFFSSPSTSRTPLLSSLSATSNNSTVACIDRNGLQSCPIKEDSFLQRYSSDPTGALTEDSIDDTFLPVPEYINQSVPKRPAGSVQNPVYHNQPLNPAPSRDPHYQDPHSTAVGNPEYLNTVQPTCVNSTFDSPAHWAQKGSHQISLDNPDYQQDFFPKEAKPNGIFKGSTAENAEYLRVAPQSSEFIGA
Transporter, Dopamine (DAT), sequence (Q01959 whole entry): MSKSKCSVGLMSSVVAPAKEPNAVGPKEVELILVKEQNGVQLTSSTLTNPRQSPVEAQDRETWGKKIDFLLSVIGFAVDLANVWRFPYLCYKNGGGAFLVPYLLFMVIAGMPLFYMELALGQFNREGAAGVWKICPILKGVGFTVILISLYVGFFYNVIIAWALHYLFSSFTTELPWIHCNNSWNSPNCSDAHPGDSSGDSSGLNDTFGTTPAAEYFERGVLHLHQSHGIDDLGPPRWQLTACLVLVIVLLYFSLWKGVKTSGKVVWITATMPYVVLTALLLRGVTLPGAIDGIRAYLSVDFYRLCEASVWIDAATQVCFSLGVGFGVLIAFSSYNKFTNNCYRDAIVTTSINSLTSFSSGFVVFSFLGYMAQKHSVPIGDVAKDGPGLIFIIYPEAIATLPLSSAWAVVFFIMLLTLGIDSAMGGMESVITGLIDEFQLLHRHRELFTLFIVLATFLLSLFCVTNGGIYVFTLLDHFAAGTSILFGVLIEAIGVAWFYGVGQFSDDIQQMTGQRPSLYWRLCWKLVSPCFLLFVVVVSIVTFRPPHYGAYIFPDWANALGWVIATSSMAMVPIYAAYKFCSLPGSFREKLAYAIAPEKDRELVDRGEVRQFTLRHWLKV
T17 sequence (P23975 whole entry): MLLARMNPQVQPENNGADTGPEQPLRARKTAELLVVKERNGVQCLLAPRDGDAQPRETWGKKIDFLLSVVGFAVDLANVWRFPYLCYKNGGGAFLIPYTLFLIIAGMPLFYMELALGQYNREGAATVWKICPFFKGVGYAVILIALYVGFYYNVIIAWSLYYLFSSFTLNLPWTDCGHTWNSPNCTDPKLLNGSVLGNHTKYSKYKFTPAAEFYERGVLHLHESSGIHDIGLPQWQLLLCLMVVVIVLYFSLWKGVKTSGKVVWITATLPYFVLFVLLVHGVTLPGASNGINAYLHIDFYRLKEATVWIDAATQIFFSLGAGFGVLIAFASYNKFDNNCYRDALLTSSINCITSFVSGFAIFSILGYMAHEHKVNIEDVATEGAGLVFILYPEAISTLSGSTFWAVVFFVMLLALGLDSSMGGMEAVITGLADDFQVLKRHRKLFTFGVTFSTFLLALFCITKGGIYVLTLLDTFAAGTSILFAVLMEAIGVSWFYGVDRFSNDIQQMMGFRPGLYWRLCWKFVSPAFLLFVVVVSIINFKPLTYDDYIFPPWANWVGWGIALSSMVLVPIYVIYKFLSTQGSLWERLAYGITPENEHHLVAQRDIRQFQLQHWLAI
T13 sequence (Q9Y271 whole entry): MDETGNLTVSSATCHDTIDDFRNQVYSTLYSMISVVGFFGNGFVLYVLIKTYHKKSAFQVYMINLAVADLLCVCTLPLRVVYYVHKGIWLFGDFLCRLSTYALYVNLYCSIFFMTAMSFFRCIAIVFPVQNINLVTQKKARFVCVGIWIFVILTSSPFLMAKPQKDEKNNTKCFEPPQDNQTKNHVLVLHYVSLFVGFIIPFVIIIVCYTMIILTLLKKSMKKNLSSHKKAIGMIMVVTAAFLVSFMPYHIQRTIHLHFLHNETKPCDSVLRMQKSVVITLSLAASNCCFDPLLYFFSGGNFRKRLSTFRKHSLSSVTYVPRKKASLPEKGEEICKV
Serotonin (5-Hydroxytryptamine) 5-HT2B, sequence (P41595 whole entry): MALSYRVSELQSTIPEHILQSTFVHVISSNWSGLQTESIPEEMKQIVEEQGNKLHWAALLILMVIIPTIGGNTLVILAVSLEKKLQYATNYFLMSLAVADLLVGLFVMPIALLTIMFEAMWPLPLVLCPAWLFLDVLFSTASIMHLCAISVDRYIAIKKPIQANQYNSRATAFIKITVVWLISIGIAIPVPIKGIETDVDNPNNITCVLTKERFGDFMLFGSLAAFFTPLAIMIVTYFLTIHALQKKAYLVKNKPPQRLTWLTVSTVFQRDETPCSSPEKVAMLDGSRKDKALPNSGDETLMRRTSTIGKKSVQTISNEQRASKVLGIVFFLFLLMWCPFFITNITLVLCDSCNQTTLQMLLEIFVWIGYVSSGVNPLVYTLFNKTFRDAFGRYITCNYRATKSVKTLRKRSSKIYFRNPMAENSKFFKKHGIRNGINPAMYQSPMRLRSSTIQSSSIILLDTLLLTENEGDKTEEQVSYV

## CCOc1ccc(-c2cc(NC(=O)c3c(F)cccc3F)c(C(=O)O)s2)cc1 [DU011]
[1]
  IC50: 690 ± 780 nM
Adenosine A1
  % Inh.: -17%
Adenosine A2A
  % Inh.: -6%
Adrenergic α1D
  % Inh.: 7%
Adrenergic α2A
  % Inh.: -14%
Adrenergic β1
  % Inh.: 3%
Calcium Channel N-Type
  % Inh.: -18%
Cannabinoid CB1
  % Inh.: 20%
Dopamine D1
  % Inh.: 4%
Dopamine D3
  % Inh.: 6%
Dopamine D4.2
  % Inh.: 0%
Endothelin ETA
  % Inh.: -4%
[2]
  % Inh.: 8%
GABAB1A
  % Inh.: 7%
Interleukin IL-1
  % Inh.: 4%
[3]
  % Inh.: 19%
Muscarinic M1
  % Inh.: 10%
Phorbol Ester
  % Inh.: 1%
[4]
  % Inh.: -1%
Thyroid Hormone
  % Inh.: 20%
Transporter, GABA
  % Inh.: -4%
[5]
  % Inh.: 58%
E. coli UTI89; [9]
  body weight: ongoing weight loss among surviving animals
  survival: 50%
E. coli UTI89; pretreatment of the bacteria and mice
  body weight: recovery of pre-infection weights
E. coli UTI89; pretreatment of the bacteria and mice, 48 hrs, 10^8 CFU UTI89 i.p.
  survival: 100%
E. coli UTI89; subcutaneous 100 µL of 1 mg/ml twice daily
  tolerability in mice: without evident side effects
E. coli UTI89; subcutaneous DU011 and untreated UTI89
  body weight: stabilization of weights at the end of the experiment
E. coli UTI89; subcutaneous DU011 and untreated UTI89, 48 hrs
  survival: 80%
[6]
  Hepatic Microsome Stability, percent remaining at 1 hr: 74.32%
[7]
  % Inh.: 19%
[8]
  % Inh.: -13%
Dopamine D2S
  % Inh.: -6%
Bradykinin B2
  % Inh.: 4%
Muscarinic M3
  % Inh.: -3%

Reference: paper PMC4077706, “Lifting the Mask: Identification of New Small Molecule Inhibitors of Uropathogenic Escherichia coli Group 2 Capsule Biogenesis” (PLoS ONE, 2014)
